# Tested on: HaCaT cells
# Assay: Normalized expression of target genes in HaCaT cells stimulated with TNFα and IFNγ in presence/absence of JAK inhibitors (QuantiGene Plex)
# Type: cell-based, human
# Settings: for MFI, normalized expression of IYK2: gene IYK2; for MFI, normalized expression of IYK2 / MFI, normalized expression of TNF / MFI, normalized expression of VEGFA: HaCaT, normalized to HPRT1, mean ± standard error; for MFI, normalized expression of TNF: gene TNF; for MFI, normalized expression of VEGFA: gene VEGFA
# Experimental: Transformed human keratinocyte (HaCaT) cells were purchased from AddexBio (Catalog #T0020001) and cultured as outlined in Example 5. […] After 48 hours, cell culture media was removed from 24 well plates and replaced with 250 uL of media containing serial diluted drug, then incubated for 15 minutes at 37° C./5% CO2. After drug incubation, 250 uL of combinatory stimulation containing Recombinant Human Interferon gamma (R&D Systems, Catalog #285-IF-100) and Recombinant Human Tumor Necrosis Factor alpha (R&D Systems, Catalog #210-TA-020) was added to plates. The final concentration of Recombinant Human Interferon gamma and Recombinant Human Tumor Necrosis Factor alpha was 25 ng/mL of each cytokine. Cytokine stimulation added to wells containing drug brought the final concentrations for each drug treatment to 25 nM, 50 nM, 100 nM, and 200 nM. Treated plates were mixed by gentle agitation for 30 seconds then incubated for 24 hours at 37° C./5% CO2. At the end of the 24 hour incubation media was immediately removed from each plate.
# RNA was isolated from HaCaT cells using the QuantiGene Plex Assay reagents and protocols (Affymetrix, Catalog #QGP-232-M18042302) according to the manufacturer's guidelines. Cells were washed with 1×DPBS then lysed by incubation with provided QuantiGene lysis buffer for 30 minutes at 50-55° C. Cell lysates were incubated for 18-24 hours at 55° C. with capture beads and probe set designed to specifically hybridize to mRNA from targets of interest. Genes included housekeeping genes (e.g., HPRT1 and GAPDH) used for the normalization of the results. After the 18-24 hour incubation signal was amplified utilizing branched DNA methodologies, according to the manufacturer's procedures (Affymetrix, Catalog #QGP-232-M18042302). After hybridization and wash steps assay plate was read on the Luminex 200 and data were expressed as Net Median Fluorescence Intensity. Data was then normalized to the Net Median Fluorescence Intensity of the housekeeping gene HPRT1 (Table 14).
# [1] = TNFα+IFNγ 25 ng/mL, Drug Conc 25 nM
# [2] = TNFα+IFNγ 25 ng/mL, Drug Conc 50 nM
# [3] = TNFα+IFNγ 25 ng/mL, Drug Conc 100 nM
# [4] = TNFα+IFNγ 25 ng/mL, Drug Conc 200 nM
# [5] = TNFα (25 ng/mL) and IFNγ (25 ng/mL), 1st (lowest, likely 25 nM) of 4 drug conc
# [6] = TNFα (25 ng/mL) and IFNγ (25 ng/mL), 2nd (likely 50 nM) of 4 drug conc
# [7] = TNFα (25 ng/mL) and IFNγ (25 ng/mL), 3rd (likely 100 nM) of 4 drug conc
# [8] = TNFα (25 ng/mL) and IFNγ (25 ng/mL), 4th (highest, likely 200 nM) of 4 drug conc
# [9] = drug without TNFα/IFNγ stimulation
# [10] = no stimulation, Drug Conc 200 nM
structure (smiles),measurement,setting,value
"C[C@@H](O)c1nc2cnc3ccsc3c2n1[C@H]1CC[C@H](CC#N)OC1 [Cpd D, ((2R,5S)-5-{2-[(1R)-1-hydroxyethyl]-1H-imidazo[4,5-d]thieno[3,2-b]pyridin-1-yl}tetrahydro-2H-pyran-2-yl)acetonitrile]",AREG normalized expression MFI,[1],725.6 ± 33.78
same,CCL17 normalized expression MFI,[1],3.08 ± 0.64
same,CCL18 normalized expression MFI,[1],1.89 ± 0.28
same,FLG normalized expression MFI,[1],71.27 ± 11.09
same,IL6 normalized expression MFI,[1],132.28 ± 7.41
same,IL8 normalized expression MFI,[1],398.64 ± 22.41
same,IL17A normalized expression MFI,[1],1.05 ± 0.18
same,IL22 normalized expression MFI,[1],1.39 ± 0.23
same,IL23A normalized expression MFI,[1],48.01 ± 2.69
same,IL31 normalized expression MFI,[1],1.99 ± 0.4
same,ILIA normalized expression MFI,[1],1269.66 ± 50.59
same,JAK1 normalized expression MFI,[1],200.4 ± 9.84
same,JAK2 normalized expression MFI,[1],108.89 ± 3.25
same,JAK3 normalized expression MFI,[1],0.97 ± 0.18
same,LOR normalized expression MFI,[1],23 ± 9.47
same,S100A7 normalized expression MFI,[1],5.37 ± 1.3
same,S100A12 normalized expression MFI,[1],1.31 ± 0.18
same,SERPINB3 normalized expression MFI,[1],2 ± 0.3
same,SERPINB4 normalized expression MFI,[1],2.78 ± 0.31
same,STAT1 normalized expression MFI,[1],3156.82 ± 244.78
same,STAT3 normalized expression MFI,[1],1572.76 ± 65.5
same,STAT4 normalized expression MFI,[1],5.4 ± 0.45
same,STAT5A normalized expression MFI,[1],20.12 ± 1.29
same,STAT5B normalized expression MFI,[1],38.56 ± 2.02
same,STAT6 normalized expression MFI,[1],1042.76 ± 29.23
same,AREG normalized expression MFI,[2],778.42 ± 44.28
same,CCL17 normalized expression MFI,[2],2.71 ± 0.41
same,CCL18 normalized expression MFI,[2],2.16 ± 0.22
same,FLG normalized expression MFI,[2],78.47 ± 10.63
same,IL6 normalized expression MFI,[2],137.61 ± 5.87
same,IL8 normalized expression MFI,[2],417.47 ± 21.97
same,IL17A normalized expression MFI,[2],1.06 ± 0.15
same,IL22 normalized expression MFI,[2],1.4 ± 0.21
same,IL23A normalized expression MFI,[2],56.64 ± 3.44
same,IL31 normalized expression MFI,[2],1.82 ± 0.44
same,ILIA normalized expression MFI,[2],1336.95 ± 50.97
same,JAK1 normalized expression MFI,[2],210.52 ± 7.73
same,JAK2 normalized expression MFI,[2],106.83 ± 5.94
same,JAK3 normalized expression MFI,[2],0.99 ± 0.2
same,LOR normalized expression MFI,[2],28.28 ± 10.86
same,S100A7 normalized expression MFI,[2],5.94 ± 1.23
same,S100A12 normalized expression MFI,[2],1.11 ± 0.18
same,SERPINB3 normalized expression MFI,[2],2.54 ± 0.33
same,SERPINB4 normalized expression MFI,[2],3.2 ± 0.53
same,STAT1 normalized expression MFI,[2],3009.6 ± 169.64
same,STAT3 normalized expression MFI,[2],1543.4 ± 58.65
same,STAT4 normalized expression MFI,[2],6.1 ± 0.36
same,STAT5A normalized expression MFI,[2],22.69 ± 1.71
same,STAT5B normalized expression MFI,[2],40.76 ± 1.91
same,STAT6 normalized expression MFI,[2],1046.46 ± 29.12
same,AREG normalized expression MFI,[3],703.3 ± 37.3
same,CCL17 normalized expression MFI,[3],2.86 ± 0.3
same,CCL18 normalized expression MFI,[3],1.74 ± 0.26
same,FLG normalized expression MFI,[3],69.64 ± 9.33
same,IL6 normalized expression MFI,[3],122.46 ± 5.35
same,IL8 normalized expression MFI,[3],410.72 ± 29.84
same,IL17A normalized expression MFI,[3],0.84 ± 0.16
same,IL22 normalized expression MFI,[3],1.24 ± 0.22
same,IL23A normalized expression MFI,[3],51.42 ± 2.55
same,IL31 normalized expression MFI,[3],1.61 ± 0.35
same,ILIA normalized expression MFI,[3],1244.96 ± 41.03
same,JAK1 normalized expression MFI,[3],200.25 ± 8.15
same,JAK2 normalized expression MFI,[3],102.64 ± 3.52
same,JAK3 normalized expression MFI,[3],1.01 ± 0.17
same,LOR normalized expression MFI,[3],21.29 ± 9.59
same,S100A7 normalized expression MFI,[3],4.6 ± 1.68
same,S100A12 normalized expression MFI,[3],1.12 ± 0.15
same,SERPINB3 normalized expression MFI,[3],2 ± 0.26
same,SERPINB4 normalized expression MFI,[3],2.64 ± 0.3
same,STAT1 normalized expression MFI,[3],2991.9 ± 200.56
same,STAT3 normalized expression MFI,[3],1549.17 ± 89.41
same,STAT4 normalized expression MFI,[3],5.83 ± 0.34
same,STAT5A normalized expression MFI,[3],19.54 ± 1.34
same,STAT5B normalized expression MFI,[3],40.91 ± 2.17
same,STAT6 normalized expression MFI,[3],985.1 ± 39.79
same,AREG normalized expression MFI,[4],713.33 ± 37.27
same,CCL17 normalized expression MFI,[4],2.34 ± 0.4
same,CCL18 normalized expression MFI,[4],1.57 ± 0.3
same,FLG normalized expression MFI,[4],72.06 ± 11.85
same,IL6 normalized expression MFI,[4],119.49 ± 4.42
same,IL8 normalized expression MFI,[4],367.56 ± 17.81
same,IL17A normalized expression MFI,[4],0.82 ± 0.13
same,IL22 normalized expression MFI,[4],1.28 ± 0.2
same,IL23A normalized expression MFI,[4],53.83 ± 3.54
same,IL31 normalized expression MFI,[4],1.51 ± 0.36
same,ILIA normalized expression MFI,[4],1163.14 ± 26.71
same,JAK1 normalized expression MFI,[4],190.53 ± 7.68
same,JAK2 normalized expression MFI,[4],92.21 ± 2.9
same,JAK3 normalized expression MFI,[4],0.86 ± 0.16
same,LOR normalized expression MFI,[4],17 ± 7.28
same,S100A7 normalized expression MFI,[4],3.77 ± 0.91
same,S100A12 normalized expression MFI,[4],0.91 ± 0.14
same,SERPINB3 normalized expression MFI,[4],1.69 ± 0.29
same,SERPINB4 normalized expression MFI,[4],2.33 ± 0.38
same,STAT1 normalized expression MFI,[4],3154.11 ± 139.56
same,STAT3 normalized expression MFI,[4],1570.19 ± 51.51
same,STAT4 normalized expression MFI,[4],5.42 ± 0.52
same,STAT5A normalized expression MFI,[4],18.33 ± 1.83
same,STAT5B normalized expression MFI,[4],36.62 ± 1.7
same,STAT6 normalized expression MFI,[4],1013.25 ± 17.15
same,"MFI, normalized expression of IYK2",[5],283.93 ± 8.16
same,"MFI, normalized expression of IYK2",[6],307.36 ± 14.87
same,"MFI, normalized expression of IYK2",[7],280.63 ± 10.46
same,"MFI, normalized expression of IYK2",[8],283.28 ± 10.88
same,"MFI, normalized expression of IYK2",[9],217.28 ± 10.09
same,"MFI, normalized expression of TNF",[5],26.07 ± 1.13
same,"MFI, normalized expression of TNF",[6],29.31 ± 2.52
same,"MFI, normalized expression of TNF",[7],27.59 ± 1.64
same,"MFI, normalized expression of TNF",[8],27.63 ± 2.3
same,"MFI, normalized expression of TNF",[9],1.59 ± 0.22
same,"MFI, normalized expression of VEGFA",[5],600.98 ± 13.99
same,"MFI, normalized expression of VEGFA",[6],582.24 ± 17.89
same,"MFI, normalized expression of VEGFA",[7],572.2 ± 19.67
same,"MFI, normalized expression of VEGFA",[8],541.01 ± 9.94
same,"MFI, normalized expression of VEGFA",[9],210.34 ± 9.72
same,AREG normalized expression MFI,[10],251.8 ± 23.68
same,CCL17 normalized expression MFI,[10],0.94 ± 0.14
same,CCL18 normalized expression MFI,[10],0.95 ± 0.19
same,FLG normalized expression MFI,[10],219.44 ± 34.83
same,IL6 normalized expression MFI,[10],5.15 ± 0.31
same,IL8 normalized expression MFI,[10],58.9 ± 5.89
same,IL17A normalized expression MFI,[10],0.43 ± 0.08
same,IL22 normalized expression MFI,[10],0.62 ± 0.11
same,IL23A normalized expression MFI,[10],9.55 ± 1.15
same,IL31 normalized expression MFI,[10],0.91 ± 0.23
same,ILIA normalized expression MFI,[10],84.51 ± 7.04
same,JAK1 normalized expression MFI,[10],171.53 ± 9.49
same,JAK2 normalized expression MFI,[10],25.25 ± 1.04
same,JAK3 normalized expression MFI,[10],0.53 ± 0.09
same,LOR normalized expression MFI,[10],12.79 ± 4.84
same,S100A7 normalized expression MFI,[10],3.69 ± 0.84
same,S100A12 normalized expression MFI,[10],0.61 ± 0.11
same,SERPINB3 normalized expression MFI,[10],1.5 ± 0.27
same,SERPINB4 normalized expression MFI,[10],1.84 ± 0.42
same,STAT1 normalized expression MFI,[10],549.79 ± 12.18
same,STAT3 normalized expression MFI,[10],750.9 ± 27.68
same,STAT4 normalized expression MFI,[10],3.75 ± 0.33
same,STAT5A normalized expression MFI,[10],1.12 ± 0.19
same,STAT5B normalized expression MFI,[10],54.64 ± 4.79
same,STAT6 normalized expression MFI,[10],762.04 ± 9.44
